We go through three compounds from US20080214563A1, “Benzimidazole Thiophene Compounds As Plk Modulators” (priority 2005, published 2008).

What all share (type): cell-based
One assay has as its system MX-1. As to the kind of experiment: Cell-Titer Glo Cell Growth Inhibition Assay, MX-1. The note with it: Homo sapiens, MX1, CellTiter-Glo, 72 h, read-out: CTG MX-1 IC50. The method, then:
(§1) A549-L (human lung), BT474 (human breast), Colo 205 (human colon), H1299 (human lung), Hela (human cervix), HCT-116 (human colon), HN5 (human head and neck), HT29 (human colon), LNCap (human prostate), MCF7 (human breast), MDA-MB468 (human breast), MX-1 (human breast), RPMI 8226 (human peripheral blood), SKOV3 (human ovary) and P388 (murine leukemia) cell lines were cultured in RPMI1640 containing 10% fetal bovine serum at 37° C. in a 5% CO2 incubator. Cell lines were split into T75 flasks (Falcon #353136) two to three days prior to assay set up at density which yields approximately 70-80% confluency at time of harvest for assay. Cells were harvested using 0.25% trypsin with EDTA (Glibco/Invitrogen #25200-056), Cell counts were performed on cell suspensions using Trypan Blue exclusion staining, cells were then plated in 105 uL of culture media per well at the following densities in 96 well Costar #3916 black flat bottom plates: All human cell lines were plated at 500 cells/well. P388 were plated at 250 cells/well. All plates were placed at 5% CO2 37° C. overnight and then test compounds were added the following day. One plate of each cell type is treated with CellTiter-Glo (Promega #G7573) for a day 0 proliferation measurement and read as described below. The test compounds are prepared in clear U bottom polypropylene 96 well plates (Falcon #35-1190 with consecutive two fold dilutions. 9 uL of these dilutions was added into each well of the cell plates. The final concentration of DMSO in all wells is 0.15%. Cells were incubated at 37° C., 5% CO2 for 72 h. Following 72 h of incubation with compounds each plate was developed and read. CellTiter-Glo reagent was added to assay plates using a volume equivalent to the cell culture volume in the wells. Plates were shaken for approximately two minutes and incubated at room temperature for approximately 15 min and the chemiluminescent signal is read on the Victor V or Envison 2100 reader. […] Concentration of compound that inhibited 50% of cell growth (IC50) was analysis by 4 or 6 parameter fit of data using XLfit, value of no cell addition was subtracted from all samples for background.

Assay [1] concerns Normal human foreskin fibroblasts (HFF). As to the kind of experiment: Methylene Blue Cell Growth Inhibition Assay, HFF. The note with it: Fibroblast, 72 h, read-out: MEB HFF IC50. The method, then: (§2) Normal human foreskin fibroblasts (HFF), human colon (HCT116, RKO), lung (H460, A549) and breast (MCF7) tumor cell lines were cultured in high glucose DMEM (Life Technologies) containing 10% fetal bovine serum (FBS) at 37° C. in a humidified 5% CO2, 95% air incubator. Cells were harvested using trypsin/EDTA, counted using a haemocytometer, and plated in 100 μL of culture media per well, at the following densities, in a 96-well tissue culture plate (Falcon 3075): HFF 5,000 cells/well, HCT116 3,000 cells/well, RKO 2,500 cells/well, H460 2,500 cells/well, A549 5,000 cells/well, MCF7 4,000 cells/well. The next day, compounds were diluted in low glucose DMEM containing 100 μg/mL gentamicin, at twice the final required concentration, from 10 mM stock solutions in DMSO. 100 μL/well of these dilutions were added to the 100 μL of media currently in the assay plates. Medium containing 0.6% DMSO was added to control wells. The final concentration of DMSO in all wells was 0.3%. Cells were incubated at 37° C., 5% CO2 for 72 h. Medium was removed by aspiration. Cell biomass was estimated by staining cells with 80 μL per well methylene blue (Sigma M9140, 0.5% in 50:50 ethanol:water), and incubation at room temperature for 30-60 min. Stain was removed by aspiration and the plates rinsed by immersion in water, then air-dried. To release stain from the cells, 100 μL of solubilization solution was added (1% N-lauroyl sarcosine, Sodium salt, Sigma L5125, in PBS), and plates were shaken gently for about 30 min. Optical density at 620 nm was measured on a microplate reader. Percent inhibition of cell growth was calculated relative to vehicle treated control wells. Concentration of compound that inhibits 50% of cell growth (IC50) was interpolated using nonlinear regression (Levenberg-Marquardt) and the equation, y=Vmax*(1−(x/(K+x)))+Y2, where “K” was equal to the IC50.

A further assay deals with H460. Kind of assay: Methylene Blue Cell Growth Inhibition Assay, H460. The note with it: Homo sapiens, NCI-H460, 72 h, read-out: MEB H460 IC50. As for the experimental part:
as §2

A further assay has as its system SKOV3. As to the kind of experiment: Cell-Titer Glo Cell Growth Inhibition Assay, SKOV-3. The following applies: Homo sapiens, SK-OV-3, CellTiter-Glo, 72 h, read-out: CTG SKOV-3 IC50. The method, then:
as §1
For orientation: Cellular ATP, detected with luciferase, serves as a proxy for viable cell number.

In a further assay the test system is A549-L. Kind of assay: Cell-Titer Glo Cell Growth Inhibition Assay, A549-L. The note with it: Homo sapiens, CellTiter-Glo, 72 h, read-out: CTG A549-L IC50. The method, then:
as §1

The next assay deals with RKO. As to the kind of experiment: Methylene Blue Cell Growth Inhibition Assay, RKO. The following applies: Homo sapiens, 72 h, read-out: MEB RKO IC50. As for the experimental part:
as §2

The IC50 is the midpoint of a concentration-inhibition curve.

Turning to `C[C@@H](Oc1cc(-n2cnc3cc(-c4ccc(N5CCNCC5)nc4)ccc32)sc1C(N)=O)c1ccccc1C(F)(F)F` [Example 1, 5-{5-[6-(1-piperazinyl)-3-pyridinyl]-1H-benzimidazol-1-yl}-3-({(1R)-1-[2-(trifluoromethyl)phenyl]ethyl}oxy)-2-thiophenecarboxamide], the IC50 in the assay with MX-1 was under 100 nM; in assay [1] it was over 1000 nM; in the assay with H460 it was 100 to 1000 nM; in the assay with SKOV3, 100 to 1000 nM; with A549-L, 100 to 1000 nM; in the assay on RKO, under 100 nM.
Turning to `C[C@@H](Oc1cc(-n2cnc3cc(-c4ccc(N5CCNCC5)nc4)ccc32)sc1C(N)=O)c1ccccc1Cl` [Example 7, 3-{[(1R)-1-(2-Chlorophenyl)ethyl]oxy}-5-{5-[6-(1-piperazinyl)-3-pyridinyl]-1H-benzimidazol-1-yl}-2-thiophenecarboxamide], the half-inhibitory concentration (IC50) with MX-1 is 100 to 1000 nM; in the assay on SKOV3, 100 to 1000 nM; with A549-L, under 100 nM; in the assay on RKO, under 100 nM.
Take `C[C@@H](Oc1cc(-n2cnc3cc(-c4cnn(C)c4)ccc32)sc1C(N)=O)c1ccccc1Cl` [Example 9, 3-{[(1R)-1-(2-Chlorophenyl)ethyl]oxy}-5-[5-(1-methyl-1H-pyrazol-4-yl)-1H-benzimidazol-1-yl]-2-thiophenecarboxamide]: the IC50 in the assay on MX-1 was under 100 nM; in assay [1], 100 to 1000 nM; in the assay with H460, under 100 nM; with SKOV3, under 100 nM; in the assay on A549-L, under 100 nM; in the assay on RKO it was under 100 nM.
